Test results as given in patent publication US4517180A, “Peptides, process for preparing the same and psychodepressant compositions containing the same” (Amano Pharmaceutical Co., Ltd, priority 1982, dated 1985).
“Also recorded” adds a separate entry of the source.

Columns and labels:
[1] = system: Male ddy mice; experiment: Effect on climbing behavior induced by apomorphine (Pharmacological Test 2); type: in vivo; parameters: key to Average: Mean ± S.E. (total of 7 scores), climbing behavior: sum of 7 scores; 0 = all four legs on floor, 2 = ≥3 legs on rods; details: for Average: Mean ± S.E. (total of 7 scores), climbing behavior: 30 min before apomorphine 0.75 mg/kg s.c., control 9.8 ± 0.7
Protocol: (§1) Effect on climbing behavior induced by apomorphine
Male ddy mice (weighing 20 to 30 g) were used, with 10 mice in each group. Each mouse was placed into a cylindrical cage, 12 cm in diameter and 14 cm in height, made up of vertical rods of 2 mm in diameter spaced apart at a distance of 10 mm in a circular arrangement. The mouse was allowed to stand therein for 2 hours. Peptide A, peptide B, CCK-8 or, as a control, the above-mentioned diluent was subcutaneously given to the animal, and 30 minutes later, 0.75 mg/kg of apomorphine was subcutaneously given. […] The test was carried out in soundproof compartments.
(§2) 0: All the four legs are on the floor.
(§3) 2: At least three legs are on rods.
Student's t-test was resorted to for statistical treatment.

[2] = system: male Wister rats; experiment: Effect on metabolism of amine in the brain; type: in vivo
Protocol: Effect on metabolism of amine in the brain
Unfasted male Wister rats (weighing 180 to 220 g) were used. Peptide A or peptide B was subcutaneously given to the animal at a dose of 1 mg/kg, the head was irradiated with microwave 1 hour thereafter, and amine metabolite was extracted from the brain. First, removed tissues were homogenized with 1M formic acid and centrifuged at 20,000×g for 20 minutes, and the supernatant (1 ml) was shaken with 5 ml of ethyl acetate. The 3,4-dihydroxyphenylacetic acid (DOPAC), homovanillic acid (HVA) and 5-hydroxyindoleacetic acid (5-HIAA) in the ethyl acetate layer were analyzed by high-performance liquid chromatography under the following conditions. Chemcosorb, 5-ODS, 20 cm×4.6 mm I.D. was used for a separating column, and a mobile phase (0.1M KH2 PO4 (pH 5.0)-5 mM EDTA-2Na-5% acetonitrile) was passed through the colunn at a flow rate of 1 ml/min. The electrochemical detector was set to an oxidation potential of +0.8 V.

[3] = system: male Wister rats; experiment: Effect on yawning behavior induced by apomorphine; type: in vivo
Protocol: Effect on yawning behavior
Male Wister rats (weighing 200 to 300 g) were used, with 10 rats in each group. The rat was placed into a plastics cage (17×24×12 cm) with a floor mat and was then habituated for 30 minutes. Peptide A, peptide B, CCK-8 or the above-mentioned diluent serving as a control was subcutaneously given to the animal. Thirty minutes thereafter, 0.03 mg/kg of apomorphine was subcutaneously given to the animal. The number of yawns induced by apomorphine was counted during a period of 30 minutes following administration of apomorphine. The test was conducted in a soundproof compartment for each animal. Wilcoxon rank-sum test was resorted to for statistical treatment.

[4] = system: male Wister rats; experiment: Effect on the fixed ratio (FR20) responding in rats; type: in vivo; details: s.c., 15 min before 20 min session, dose giving count 50 with control as 100
Protocol: Effect on the fixed ratio responding in rats
The test was conducted according to the method described in Ahlenius S. and Engel J., Eur. J. Pharm., Vol. 15, 187-192 (1971).
Male Wister rats (weighing 240 to 320 g) were placed into Skinner box (product of Bil-Medika Co., Ltd., Japan, adapted to give a feed when a lever within the box is pressed) and made to learn how to take the food. In this test, one feed was given to the rats when the lever was pressed 20 times, i.e., fixed ratio (FR) 20. The rats showing stable FR20 response were divided into groups each including four rats.
Physiological saline (containing 1 mM of sodium hydrogencarbonate) containing a specified amount of a test compound was subcutaneously given to the rats of one group in a volume of 0.1 ml/100 g. (Physiological saline containing the above-mentioned amount of sodium hydrogencarbonate only was given to the control group). Fifteen minutes after the administration, the test animals were placed in the Skinner box, and the number of times the animals took the feed for 20 minutes was counted. The dose at which the count gained by the group of animals was 50, namely, ED50 value, was determined, with the count gained by the control group calculated as 100. The same procedure as above was repeated with use of the other test compounds.

[5] = system: Male ICR mice; experiment: Inhibitory effect on hyperlocomotion induced by administration of methylphenidate; type: in vivo; details: s.c. with methylphenidate 10 mg/kg s.c., measured 1 hour after, 50 with control as 100
Protocol: Inhibitory effect on hyperlocomotion induced by administration of methylphenidate
Male ICR mice (weighing 24 to 30 g) were divided into groups, each including 10 mice. To one group of mice were subcutaneously given 10 mg/kg of methylphenidate and 0.1 ml/10 g of a saline solution of a specified amount of a test compound and 1 mM of sodium hydrogencarbonate. One hour after the administration, the test animals were checked for hyperlocomotion, which was measured with use of a device for measuring locomotion of small animals (wherein the motion of an animal shifts the center of graavity of the device to actuate a microswitch for the measurement of the amount of motion, see Folia Pharmacologica Japonica, 74, 629-639 (1978). For a control group, the same procedure as above was repeated except that the saline solution given was free from any test compound. The concentration of the test compound at which the result achieved by the group of animals was 50, namely, ED50 value, was determined, with the measurement obtained by the control group calculated as 100. The other compounds were tested in the same manner as above.

[6] = system: Male ddy mice; experiment: Effect on climbing behavior induced by apomorphine (Pharmacological Test 7); type: in vivo; parameters: key: sum of 7 scores; each 0 = four legs on floor, 2 = ≥3 legs on rods; details: control 9.8 ± 0.7
Protocol: as §1
Male ddy mice (weighing 20 to 30 g) were used, with 10 mice in each group. Each mouse was placed into a cylindrical cage, 12 cm in diameter and 14 cm in height, made up of vertical rods of 2 mm in diameter spaced apart at a distance of 10 mm in a circular arrangement. The mouse was allowed to stand therein for 2 hours. Physiological saline containing a specified amount of a test compound (and 1 mM of sodium hydrogencarbonate) was subcutaneously given to one group of mice in a volume of 1 ml/10 g. (The same dose of saline only was given to a control group). […] The test was carried out in soundproof compartments.
as §2, §3
The other compounds were tested in the same manner as above. The test was carried out in soundproof compartments. Student's t-test was resorted to for statistical treatment.

[7] = Induction of yawning behavior; details: in vivo
[8] = system: test animals; experiment: Induction of catalepsy in test animals; type: in vivo

CSCC[C@H](NC(=O)[C@H](Cc1ccc(OS(=O)(=O)O)cc1)NC(=O)[C@@H](N)CC(=O)O)C(=O)NCC(=O)N[C@@H](Cc1c[nH]c2ccccc12)C(=O)N[C@@H](CCSC)C(=O)N[C@@H](CC(=O)O)C(=O)N[C@@H](Cc1ccccc1)C(N)=O [CCK-8, Asp--Tyr(SO3 H)--Met--Gly--Trp--Met--Asp--Phe--NH2, reference compound]
Average: Mean ± S.E. (total of 7 scores), climbing behavior ([1]; 0.01 mg/kg s.c.): 10.2 ± 0.7
Average: Mean ± S.E. (total of 7 scores), climbing behavior ([1]; 0.1 mg/kg s.c.): 11.4 ± 0.6
Average: Mean ± S.E. (total of 7 scores), climbing behavior ([1]; 1 mg/kg s.c.): 9.5 ± 1.0
Effect on apomorphine-induced climbing behavior (in words) ([1]; mice, s.c.): little or no influence on the climbing behavior; also recorded: does not inhibit this behavior
Acceleration of the metabolism of dopamine in the brain of rats (in words) [2]: does not accelerate the metabolism of dopamine
Number of yawns (average) ([3]; 1 mg/kg s.c., 30 min before apomorphine 0.03 mg/kg s.c., counted 30 min, control 4.5): 4.9
Effect on yawning behavior induced by apomorphine (in words) ([3]; rats, s.c.): not inhibited
ED50, inhibition of FR20 responding [4]: 0.0221 mg/kg
ED50, inhibition of methylphenidate-induced hyperlocomotion [5]: 0.5125 mg/kg
Average: Mean ± S.E. (total of 7 scores), climbing behavior ([6]; 0.01 mg/kg s.c.): 10.2 ± 0.7
Average: Mean ± S.E. (total of 7 scores), climbing behavior ([6]; 0.1 mg/kg s.c.): 11.4 ± 0.6
Average: Mean ± S.E. (total of 7 scores), climbing behavior ([6]; 1.0 mg/kg s.c.): 9.5 ± 1.0
Induction of yawning behavior (thought to be induced by a reduction in the amount of dopamine) [7]: induces no yawning behavior whatsoever
Induction of catalepsy (side effect) [8]: induces catalepsy
